{"source": "paper PMC8365602", "about": "(Journal of Medicinal Chemistry, 2021)", "key": {"[1]": {"test_system": "PMNL", "assay": "Intracellular uptake by PMNL", "type": "cell-based, human", "settings": "150 nM for 20 min", "procedure": "Cells were centrifuged (1200g, 5 min, 4 °C) and washed thrice with PBS pH 7.4 with 0.1% fatty-acid-free BSA (Sigma-Aldrich). Compounds were extracted and analyzed by UPLC-MS/MS as described below for LCMs and derivatives. The intracellular concentrations of 27a and 12a were calculated assuming a spherical cell shape with a diameter of 13 μm (as measured using a Vi-CELL Series Cell Counter, Beckman Coulter, Krefeld, Germany) and an equal intracellular distribution. 13d (9 pmol) was used as the internal standard."}, "[2]": {"test_system": "E. coli-stimulated macrophages", "assay": "Arachidonic acid release from E. coli-stimulated macrophages", "type": "cell-based, human", "settings": "≤1 μM", "method": "Macrophages were stimulated in PBS pH 7.4 (containing 1 mM CaCl2) with E. coli (serotype O6:K2:H1) at a ratio of 1:50 (macrophages: E. coli) for 180 min at 37 °C and 5% CO2.[24]\nFatty acids and lipid mediators were extracted from macrophage supernatants or murine peritoneal exudates (1 mL) after addition of two aliquots of ice-cold methanol.[23]d8-5S-HETE, d4-LTB4, d5-lipoxin A4, d5-resolvin D2, d4-PGE2 (200 nM, each, Cayman Chemicals), and d8-arachidonic acid (10 μM, Cayman Chemicals) were added as internal standards. After protein precipitation at −20 °C for ≥1 h, supernatants (1200g, 10 min, 4 °C) were acidified (pH 3.5) and loaded onto solid-phase cartridges (Sep-Pak Vac 6cc 500 mg/6 mL C18; Waters), which had been equilibrated with methanol and H2O. The columns were extensively washed with H2O and hexane before lipid mediators were eluted with methyl formate, evaporated to dryness, dissolved in methanol/H2O (50:50), and analyzed by UPLC-MS/MS.[23]\nAbsolute quantification was based on 6 internal and 45 external standards.[23]"}, "[3]": {"molecular_target": "mPGES-1 (Homo sapiens, UniProt O14684)", "sequence (O14684 whole entry)": "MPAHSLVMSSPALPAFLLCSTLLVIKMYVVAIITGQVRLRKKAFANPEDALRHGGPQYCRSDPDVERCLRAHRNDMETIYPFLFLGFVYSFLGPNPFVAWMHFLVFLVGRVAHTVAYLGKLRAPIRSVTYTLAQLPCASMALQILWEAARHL", "assay": "mPGES-1 activity in microsomal preparations of IL-1β-treated A549 cells", "type": "biochemical", "settings": "10 μM", "procedure": "Confluent cells were detached by trypsin-EDTA (GE Healthcare) and reseeded at a density of 1 × 10^4 cells/cm^2.\nDifferential centrifugation at 10 000g for 10 min and 174 000g for 1 h at 4 °C yielded the microsomal fraction. The pellet was resuspended in homogenization buffer and diluted in 0.1 M potassium phosphate buffer pH 7.4 containing 2.5 mM glutathione. Microsomal membranes (adjusted to 2.5–5 μg total protein) were preincubated with 27a for 15 min at 4 °C. The mPGES-1 substrate PGH2 (20 μM) was added to induce PGE2 formation."}, "[4]": {"test_system": "15-LOX", "assay": "15-LOX product formation in activated PMNL", "type": "cell-based, human", "method": "Freshly isolated PMNL (5 × 10^6) suspended in PBS pH 7.4 with 1 mg/mL glucose or freshly withdrawn human whole blood were preincubated with the test compounds for 10 min (or as indicated) at 37 °C. […] The reaction was stopped with an equal volume of methanol."}, "[5]": {"test_system": "CYP3A4", "assay": "CYP3A4 expression in differentiated HepaRG cells", "type": "cell-based, human", "settings": "48 h", "procedure": "HepaRG cells were seeded at a density of 2.6 × 10^4 cells/cm^2 in Williams’ E medium supplemented with 2 mM GlutaMAX (Thermo Fisher Scientific, Waltham, MA), 100 U/mL penicillin, 100 μg/mL streptomycin, 10% HyClone FCS (Thermo Fisher Scientific), 5 μg/mL insulin, and […] hydrocortisone-hemisuccinate. At confluence after two weeks, HepaRG cells were shifted to a medium supplemented with 1.7% DMSO for two additional weeks to obtain confluent differentiated cultures containing equal proportions of hepatocyte-like and progenitors/primitive biliary-like cells. These differentiated hepatic cell cultures were exposed to the compounds in Williams’ E medium supplemented with 2% FCS plus 0.2% DMSO for 48 h. […]\nThe assay plate was imaged and analyzed using the Cell Health Profiling BioApplications (HCS Studio Cellomics software Version x.6.4.3 (Build 7207)) on the ArrayScan VTI HCS Reader (Thermo Fisher Scientific—Cellomics, Pittsburgh, PA) using the 20× objective (Zeiss, LD Plan Neofluar 20×/0.4 korr). […]\nThe CYP3A4 expression was quantified using an arbitrary unit of fluorescent mass representing the combination of intensity and area adjusted to cell number calculated by nuclei counting (Hoechst)."}, "[6]": {"assay": "Concentrations and metabolism of compound in mice with zymosan-induced peritonitis", "type": "in vivo", "procedure": "LCMs, 27a, and 27a metabolites were extracted from PMNL, medium of the liver-on-chip, murine plasma, peritoneal exudate, or homogenized murine tissue as described.[6] In brief, PBS pH 7.4, methanol, chloroform, and saline (final ratio: 14:34:35:17) were successively added together with 13d (9 pmol) as the internal standard. The organic layer was evaporated, and the extracted LCMs were dissolved in methanol.\nLCMs, 27a, and 27a metabolites were separated at a flow rate of 0.8 mL/min and a column temperature of 45 °C, with acetonitrile/H2O (10:90) as mobile phase A and acetonitrile as mobile phase B, both acidified with 0.07% formic acid. The linear gradient from A/B = 50:50 to 0:100 within 4.5 min was followed by isocratic elution with A/B = 0:100 for 1 min. MS parameters were adjusted according to Pein et al.[6] and as detailed in Table S3. Signal intensities were normalized to the internal standard 13d, and concentrations were calculated using external calibration curves as specified in Table S3.\n(§1) Zymosan (2 mg/mL in saline, i.p., 0.5 mL, Sigma-Aldrich) was injected at 30 min (i.p.) or 60 min (p.o.) post compound administration. Mice were sacrificed by inhalation of CO2 after another 30 min to determine LTC4 levels, lipid mediator profiles, metabolites, and vascular permeability and after 4 h to analyze LTB4 levels and cell infiltration.[72] Plasma and peritoneal exudates were collected, and cells were counted in exudates after trypan blue staining. Vascular permeability was measured by injection of Evans blue dye (40 mg/kg in saline, 0.3 mL, Sigma-Aldrich) into the tail vain directly before peritonitis induction.[72] The exudate was centrifuged (3000g, 5 min), and the absorbance was measured at 610 nm (DU730 spectrophotometer, Beckman Coulter, Krefeld, Germany). Levels of LTB4 and cysteinyl-LTs (dominated by LTC4) were quantified in the exudate by ELISA (Enzo Life Sciences, Lörrach, Germany) according to the manufacturer’s instructions. Compound 27a, its metabolites, and lipid mediators were extracted and analyzed by UPLC-MS/MS."}, "[7]": {"test_system": "zymosan-induced murine peritonitis", "assay": "Zymosan-induced peritonitis in mice", "type": "in vivo", "procedure": "Male CD-1 mice (33–39 g, 6–8 weeks, Charles River Laboratories; Calco, Italy) and female BALB/c mice (20 g, 8 weeks, Charles River Laboratories) were fed with standard rodent chow and water and acclimated for 4 days at a 12 h light and 12 h dark schedule in a constant air-conditioned environment (21 ± 2 °C). Mice were randomly assigned to groups, and experiments were carried out during the light phase.\nas §1"}, "[8]": {"molecular_target": "triple mutant Trp13Ala, Trp75Ala, and Trp102Ala 5-LOX (3W) (Homo sapiens, UniProt P09917, W103A/W14A/W76A)", "sequence (P09917 whole entry W14A/W76A/W103A)": "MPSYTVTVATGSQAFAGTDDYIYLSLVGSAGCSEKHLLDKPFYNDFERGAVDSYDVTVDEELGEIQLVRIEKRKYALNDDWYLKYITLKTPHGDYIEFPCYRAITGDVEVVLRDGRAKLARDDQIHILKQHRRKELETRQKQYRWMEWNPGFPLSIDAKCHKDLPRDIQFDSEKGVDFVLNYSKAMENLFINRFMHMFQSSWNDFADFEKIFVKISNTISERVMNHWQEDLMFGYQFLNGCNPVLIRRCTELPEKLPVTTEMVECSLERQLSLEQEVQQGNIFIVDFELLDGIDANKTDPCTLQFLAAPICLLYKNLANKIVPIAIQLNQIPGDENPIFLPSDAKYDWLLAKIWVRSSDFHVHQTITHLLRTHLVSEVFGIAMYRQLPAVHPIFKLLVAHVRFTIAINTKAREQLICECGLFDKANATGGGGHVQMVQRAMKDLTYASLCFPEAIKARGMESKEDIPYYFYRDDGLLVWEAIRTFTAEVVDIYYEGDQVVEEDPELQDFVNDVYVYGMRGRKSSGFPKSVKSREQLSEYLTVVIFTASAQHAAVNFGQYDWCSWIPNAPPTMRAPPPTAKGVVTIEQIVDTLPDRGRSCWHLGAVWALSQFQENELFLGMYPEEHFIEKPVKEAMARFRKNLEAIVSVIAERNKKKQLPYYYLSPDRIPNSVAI", "assay": "Cell-free activity of 5-LOX triple mutant (3W)", "method": "Human recombinant 5-LOX was expressed in E. coli Bl21 (DE3) cells that were transformed with pT3–5LOX (wt 5-LOX), 5-LOX_3W (triple mutation of Trp102Ala/Trp13Ala/Trp75Ala), or 5-LOX_R (single mutant of the Arg101Asp plasmid) and purified on an ATP-agarose column (Econo-Pac, Bio-Rad, Hercules, CA) by affinity chromatography.[6],[75]\nPurified 5-LOX (0.5 μg in PBS pH 7.4 containing 1 mM EDTA and 1 mM ATP) was preincubated with the vehicle (DMSO) or test compounds for 10 min and prewarmed at 37 °C."}, "[9]": {"settings": "10 mg/kg i.p., 30 min post zymosan"}, "[10]": {"settings": "10 mg/kg i.p., 4 h post zymosan"}}}
{"smiles": "C/C(=C\\CC/C(C)=C/CC[C@]1(C)CCc2c(C)c(O)c(C)c(C)c2O1)CCC=C(CO)CO", "note": "[Compound 27a, α-amplexichromanol]", "values": [{"measurement": "Intracellular accumulation in PMNL", "setting": "[1]", "value": "strongly accumulates in PMNL"}, {"measurement": "Availability of free arachidonic acid", "setting": "[2]", "value": "neither reduced the availability of free arachidonic acid"}, {"measurement": "mPGES-1 activity", "setting": "[3]", "value": "decreased mPGES-1 activity"}, {"measurement": "15-LOX inhibition", "setting": "[4]; activated human PMNL", "value": "not substantially inhibited"}, {"measurement": "15-LOX product formation", "setting": "[4]; submicromolar concentrations", "value": "increased by a trend"}, {"measurement": "CYP450 enzyme (CYP3A4) expression", "setting": "[5]", "value": "did not induce CYP450 enzyme expression"}, {"measurement": "concentration at 90 min", "setting": "[6]; CD-1, mouse, plasma, po, mice with acute peritonitis, 10 mg/kg p.o., 90 min post administration", "value": "30 to 900", "unit": "nM"}, {"measurement": "Side-chain degradation in mice", "setting": "[6]; mice, 10 mg/kg p.o., plasma", "value": "resistant to degradation"}, {"measurement": "Time to uptake after oral administration", "setting": "[6]; mice, p.o.", "value": "≤ 1", "unit": "h"}, {"measurement": "Concentrations in the peritoneal exudate", "setting": "[6]; mice, peritonitis, oral administration 30 mg/kg", "value": "0.5 to 4", "unit": "nM"}, {"measurement": "Cysteinyl-LTs in the exudate", "setting": "[7]; 3 mg/kg p.o., 30 min post zymosan", "value": "decreased to a basal level"}, {"measurement": "LTC4 levels in the exudate", "setting": "[7]; [9]", "value": "strongly decreased LTC4 levels in the exudate"}, {"measurement": "Vascular permeability", "setting": "[7]; [9]", "value": "reduced vascular permeability"}, {"measurement": "Influx of cells into the peritoneal cavity", "setting": "[7]; [10]", "value": "accordingly reduced"}, {"measurement": "LTB4 levels in the exudate", "setting": "[7]; [10]", "value": "substantially lowered LTB4 levels"}, {"measurement": "Resolvin E3 levels in the exudate", "setting": "[7]; 10 mg/kg p.o., 30 min post zymosan injection, individual mice", "value": "moderately increased"}, {"measurement": "Effect of Trp102Ala/Trp13Ala/Trp75Ala triple mutation on 5-LOX inhibition", "setting": "[8]", "value": "failed to affect 5-LOX inhibition"}]}
